Source: PMC3678512, “Synthesis and physicochemical characterization of novel phenotypic probes targeting the nuclear factor-kappa B signaling pathway” (Beilstein Journal of Organic Chemistry, 2013)
Converted amounts (≈) assume the structure as drawn. Like-named read-outs stand apart in the source and are kept apart here.

Columns and labels:
[1] = system: NF-κB activation in HEK 293T cells; assay: NF-κB reporter gene assay in HEK 293T cells; assay type: cell-based, human; conditions: relative to 697 pre-B cell line potency
Description: (§1) Phenotypic screening for noncanonical NF-κB pathway selective inhibitors of IL-8 production in HEK 293, HEK 293T (ML029) and 697 pre-B cells (ML236 and ML237): Most pathways for NF-κB activation converge on the IκB kinases (IKKs), and more than nine signaling routes have been identified. While IKKs therefore represent attractive targets for drug discovery programs, the selectivity envisioned for an acceptable therapeutic index has remained elusive as inhibitors of IKKs indiscriminately suppress all known NF-κB activation pathways. Within this project, new probes were sought that were not active via the currently known receptor-driven pathways and IκB kinases, but attenuated NF-κB transcriptional activity as measured by a luciferase-based reporter gene assay with validation using a panel of known receptor and kinase-based counter screens.
(§2) Therefore, an HTS campaign was initiated to identify compounds active in these specific cell subtypes by using the established HTS NF-κB reporter gene assay format. This included screening of a larger (~330,600 compound) MLSMR collection to ensure identification of additional chemical scaffolds not previously available. From this campaign two new cell-active NF-κB inhibitors were derived that were both selective against the NF-κB pathway induced by known PKC activators (phorbol myristic acetate (PMA)/ionomycin) and were selective toward the 697 pre-B cell line. It is interesting to note that no compounds meeting probe selectivity criteria were identified within the T cell (HEK 293T) specific assay. The first oxadiazole-based probe ML236 (8) was potent (0.035 μM) in the 697 pre-B cell line and >400-fold selective over both the NF-κB activation in HEK 293T cells and against TNFα-mediated NF-κB activation. In comparison, the second oxazole-based probe 12 is also potent (0.2 μM) in the 697 pre-B cell line and >400-fold selective over both the NF-κB activation in HEK 293T cells and against TNFα mediated NF-κB activation as measured in our reporter gene assay format.

[2] = PAMPA (parallel artificial membrane permeability assay); assay type: in vitro ADME; conditions: for PAMPA Pe, donor pH 5.0: donor pH 5.0, acceptor pH 7.4, compound at 50 μM; for PAMPA Pe, donor pH 6.2: donor pH 6.2, acceptor pH 7.4, compound at 50 μM; for PAMPA Pe, donor pH 7.4: donor pH 7.4, acceptor pH 7.4, compound at 50 μM
Protocol: (§3) The probes were evaluated using known in vitro ADME/T assays to understand their overall pharmacological properties (Table 2). […] The PAMPA (parallel artificial membrane permeability assay) assay is used as an in vitro model of passive, transcellular permeability. An artificial membrane immobilized on a filter is placed between a donor and acceptor compartment. […] It is not yet known whether it represents a species specific CPY450 inhibitor.

[3] = Hepatic microsome stability, human; assay type: in vitro ADME; conditions: for Hepatic microsome stability, human (% remaining): compound at 1 μM, 60 min
Protocol: as §3

[4] = system: TNFα-mediated NF-κB activation; assay: TNFα-mediated NF-κB activation reporter gene assay; assay type: cell-based; conditions: relative to 697 pre-B cell line potency
Description: as §2

[5] = Hepatic microsome stability, mouse; assay type: in vitro ADME; conditions: compound at 1 μM, 60 min
Protocol: as §3

Aqueous solubility = assay type: physicochemical; conditions: for Solubility (in words): across pH 5 to 7.4
Protocol: as §3

[6] = system: NF-κB activation in 697 pre-B cell line; assay: NF-κB reporter gene assay in 697 pre-B cells (PMA/ionomycin induced); assay type: cell-based; conditions: read-out: Potency in 697 pre-B cell line (NF-κB reporter)
Description: as §1, §2

[7] = Hepatic toxicity in immortalized human hepatocytes; assay type: cell-based; conditions: Fa2N-4 immortalized human hepatocytes, read-out: Hepatic toxicity LC50
Protocol: as §3

[8] = system: NOD2-dependent IL-8 secretion in MCF-7 cells; assay: NOD2-dependent IL-8 secretion in MCF-7 cells; assay type: cell-based
[9] = system: TNF-α-dependent IL-8 secretion in MCF-7 cells; assay: TNF-α-dependent IL-8 secretion in MCF-7 cells; assay type: cell-based
[10] = system: NOD1 (γ-tri-DAP) dependent IL-8 secretion; assay: NOD1 (γ-tri-DAP) dependent IL-8 secretion; assay type: cell-based
PKCθ = system: PKCθ; design: method as in PMID 20481485, PMID 20153655; conditions: 4 at concentrations up to 8 μM; cited from earlier work
IKKβ = system: IKKβ; design: method as in PMID 20481485, PMID 20153655; conditions: 4 at concentrations up to 8 μM; cited from earlier work
[11] = aqueous medium, aqueous buffer, pH 5.0, read-out: Aqueous solubility pH 5.0
[12] = aqueous medium, pH 6.2, aqueous buffer, read-out: Aqueous solubility pH 6.2
[13] = aqueous medium, pH 7.4, aqueous buffer, read-out: Aqueous solubility pH 7.4

Row | Structure (SMILES) | Selectivity over NF-κB activation in HEK 293T cells [1] | PAMPA Pe, donor pH 5.0 [2] | PAMPA Pe, donor pH 6.2 [2] | PAMPA Pe, donor pH 7.4 [2] | Hepatic microsome stability, human (% remaining) [3] | Selectivity against TNFα-mediated NF-κB activation [4] | Hepatic microsome stability, mouse (% remaining) [5] | Solubility (in words) (Aqueous solubility) | solubility (Aqueous solubility; [11]) | solubility (Aqueous solubility; [12]) | solubility (Aqueous solubility; [13]) | IC50 [6] | CC50 [7] | other results
1 | CNC(=O)CCc1nc(-c2ccc(C(C)(C)C)cc2)no1 [Probe 8] | > 400 fold | 751 10^−6 cm/s | 755 10^−6 cm/s | 746 10^−6 cm/s | 100 % remaining | > 400 fold | 4.9 % remaining | good solubility | 92 µM (≈ 26.4 µg/mL) | 101 µM (≈ 29 µg/mL) | 103 µM (≈ 29.6 µg/mL) | 35 nM | > 50000 nM | Metabolic stability in human hepatic microsomes (in words) ([3]; one hour of exposure): no apparent instability
2 | CCOc1ccc(-c2nc(CSCC(=O)NC3CC3)c(C)o2)cc1 [Probe 12] | > 400 fold | 513 10^−6 cm/s | 541 10^−6 cm/s | 59 10^−6 cm/s | 22.7 % remaining | > 400 fold | 0 % remaining | good solubility | 112 µM (≈ 38.8 µg/mL) | 133 µM (≈ 46.1 µg/mL) | 160 µM (≈ 55.4 µg/mL) | 200 nM | > 50000 nM | –
3 | Cc1ccc(S(=O)(=O)n2c(N)nc3ccccc32)cc1 [Probe 13] | – | 491 10^−6 cm/s | 562 10^−6 cm/s | 382 10^−6 cm/s | 41.8 % remaining | – | 0.8 % remaining | moderate solubility | – | – | – | – | > 50000 nM | Inhibition of NOD2-dependent IL-8 secretion [8]: neither inhibited; Inhibition of TNF-α-dependent IL-8 secretion [9]: neither inhibited; solubility (Aqueous solubility; pH 5.0, read-out: Aqueous solubility pH 5.0): 7.0 µM (≈ 2.01 µg/mL); solubility (Aqueous solubility; pH 6.2, read-out: Aqueous solubility pH 6.2): 5.9 µM (≈ 1.7 µg/mL); solubility (Aqueous solubility; pH 7.4, read-out: Aqueous solubility pH 7.4): 7.0 µM (≈ 2.01 µg/mL); Inhibition of NOD1 (γ-tri-DAP) dependent IL-8 secretion [10]: selectively inhibited IL-8 secretion
4 | CN[C@@H]1C[C@H]2O[C@@](C)([C@@H]1OC)n1c3ccccc3c3c4c(c5c6ccccc6n2c5c31)C(=O)NC4 [staurosporine, reference compound] | – | – | – | – | – | – | – | – | – | – | – | – | – | Suppression of PKCθ (PKCθ): potent inhibition; Suppression of IKKβ (IKKβ): potent inhibition
